Experimental findings from PubChem BioAssay (NCI) are described below.

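All cell lines were grown in 96-well plates and treated with compound for 48 hours. GI50 marks 50% less growth. At the TGI there is no net growth.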 Where only a bound is given, the exact number is not on record here.

Usually GI50 stands for the concentration at which growth is held to half of that of the control. As usually defined, the TGI is the concentration at which net growth stops.

Test systems include DU-145 prostate; NCI-H226 lung; 786-0 renal; SK-MEL-28 melanoma; A498 renal; OVCAR-8 ovarian; SK-MEL-2 melanoma; MCF7 breast; TK-10 renal; MDA-MB-231 breast.
Holding throughout (test): DTP human tumour cell line panel, 48 h

For the compound `N=c1ccn2c(n1)O[C@@H]1[C@@H](O)[C@H](CO)O[C@@H]12`, the GI50 in the test on DU-145 prostate was 2.42 µM; in the test on NCI-H226 lung, 3.52 µM; in the test on 786-0 renal, 2.46 µM; in the test with SK-MEL-28 melanoma, 4.89 µM; in the test with A498 renal, > 100 µM; in the test with SK-MEL-2 melanoma, 15.8 µM. Moreover, the GI50 with MCF7 breast is 0.234 µM; in the test on TK-10 renal, > 100 µM; in the test with MDA-MB-231 breast, > 100 µM. The TGI in the test with DU-145 prostate is > 100 µM; in the test on NCI-H226 lung it was > 100 µM; with 786-0 renal it was 50.3 µM; in the test with SK-MEL-28 melanoma it was > 100 µM; in the test on A498 renal it was > 100 µM; in the test on OVCAR-8 ovarian, > 100 µM. Also, the TGI with SK-MEL-2 melanoma, in the test with MCF7 breast, in the test with TK-10 renal and in the test on MDA-MB-231 breast was > 100 µM in each case.
Regarding `O=C(CCl)Nc1ccc2c(c1)C(=O)c1ccc(NC(=O)CCl)cc1C2=O`, the GI50 in the test on DU-145 prostate was 1.41 µM; in the test on NCI-H226 lung, 0.229 µM; in the test on 786-0 renal, 0.193 µM; in the test on SK-MEL-28 melanoma, 0.321 µM; in the test on A498 renal it was 3.49 µM; with OVCAR-8 ovarian, 0.439 µM. The GI50 with SK-MEL-2 melanoma was 0.783 µM; in the test on MCF7 breast, 0.194 µM; in the test with TK-10 renal, 1.81 µM; in the test with MDA-MB-231 breast, 0.486 µM. The TGI in the test with DU-145 prostate was 3.45 µM; in the test with NCI-H226 lung it was 0.711 µM; in the test on 786-0 renal, 0.537 µM; with SK-MEL-28 melanoma, 1.33 µM; in the test with A498 renal, 27.6 µM; with OVCAR-8 ovarian, > 100 µM. Also, the TGI is 3.84 µM in the test on SK-MEL-2 melanoma, 0.79 µM in the test on MCF7 breast, 7.33 µM in the test on TK-10 renal and 2.36 µM with MDA-MB-231 breast.
For `O=C1c2cccnc2C(=O)c2c1c(C(=O)OCCN1CCOCC1)c1ccccn21`, the GI50 with DU-145 prostate was < 0.0175 µM; in the test on NCI-H226 lung it was < 0.017 µM; in the test on 786-0 renal, 0.0108 µM; in the test with SK-MEL-28 melanoma it was 0.0458 µM; in the test with A498 renal, 0.0236 µM; with OVCAR-8 ovarian it was < 0.0168 µM. Further, the GI50 was 0.0585 µM in the test on SK-MEL-2 melanoma, < 0.01 µM with MCF7 breast, 0.163 µM with TK-10 renal and 0.905 µM in the test on MDA-MB-231 breast. Also, the TGI with DU-145 prostate is 1.31 µM; with NCI-H226 lung, 0.696 µM; in the test on 786-0 renal, 2.22 µM; in the test on SK-MEL-28 melanoma, 2.12 µM; in the test on A498 renal, 1.65 µM; in the test with OVCAR-8 ovarian, 9.21 µM. For the same compound, the TGI in the test with SK-MEL-2 melanoma turned out to be 1.61 µM; in the test on MCF7 breast, 0.041 µM; with TK-10 renal, 2.72 µM; in the test with MDA-MB-231 breast, 41.2 µM.
On to `CCN(CC)CC(O)C1CCC(c2ccccc2)CC1` (centres undefined), for which the TGI with DU-145 prostate was > 100 µM; with NCI-H226 lung it was 33.3 µM; in the test on 786-0 renal, 47.6 µM; with SK-MEL-28 melanoma, 48.9 µM; with A498 renal it was 42.9 µM; in the test with OVCAR-8 ovarian, 59.7 µM. Moreover, the TGI stood at 37.4 µM with SK-MEL-2 melanoma, 84.6 µM in the test on MCF7 breast, 31.2 µM in the test on TK-10 renal and 37.6 µM with MDA-MB-231 breast.
As to `COC(=O)c1ccc(C2SCC(=O)N2NC(=O)C(O)c2ccccc2)cc1` (centres undefined), the GI50 in the test with DU-145 prostate, in the test with NCI-H226 lung, in the test with 786-0 renal, in the test with SK-MEL-28 melanoma, in the test on A498 renal and in the test with OVCAR-8 ovarian was > 100 µM throughout. Further, the GI50 with SK-MEL-2 melanoma, in the test on MCF7 breast, with TK-10 renal and in the test with MDA-MB-231 breast was > 100 µM each time. Moreover, the total growth inhibition concentration (TGI) with DU-145 prostate, with NCI-H226 lung, in the test with 786-0 renal, in the test with SK-MEL-28 melanoma, in the test on A498 renal and with OVCAR-8 ovarian was > 100 µM each time. For the same compound, the concentration for total growth inhibition (TGI) in the test on SK-MEL-2 melanoma, in the test with MCF7 breast, with TK-10 renal and in the test with MDA-MB-231 breast was > 100 µM throughout.
Turning to `CC(=O)Nc1sc2c(c1-c1nc3ccccc3s1)CNC2`, the GI50 was 2.93 µM in the test on DU-145 prostate; 3.27 µM with NCI-H226 lung; 2.61 µM in the test with 786-0 renal; 2.94 µM in the test with SK-MEL-28 melanoma; 7.4 µM in the test with A498 renal; 2.45 µM with OVCAR-8 ovarian. Further, the GI50 is 2.67 µM in the test with SK-MEL-2 melanoma, 0.865 µM in the test with MCF7 breast, 4.74 µM in the test on TK-10 renal and 3.09 µM with MDA-MB-231 breast. Moreover, the TGI in the test on DU-145 prostate is > 50 µM; in the test with NCI-H226 lung, 16.7 µM; in the test on 786-0 renal, 9.6 µM; in the test on SK-MEL-28 melanoma, 9.93 µM; in the test with A498 renal it was 14.9 µM; with OVCAR-8 ovarian it was > 50 µM. The TGI was 9.71 µM with SK-MEL-2 melanoma, 7.88 µM in the test with MCF7 breast, 24.4 µM in the test on TK-10 renal and 16.2 µM with MDA-MB-231 breast.
Regarding `O=C(O)/C=C\C(=O)Nc1ccc2c(c1)C(=O)c1cc(F)ccc1-2`, the TGI in the test with DU-145 prostate, in the test on NCI-H226 lung, in the test on 786-0 renal, in the test on SK-MEL-28 melanoma, with A498 renal and in the test with OVCAR-8 ovarian was > 100 µM throughout. In addition, the TGI in the test with SK-MEL-2 melanoma, in the test with MCF7 breast, with TK-10 renal and in the test with MDA-MB-231 breast was > 100 µM in each case.
For the compound `CN1CCCN(C(c2ccccc2)c2ccc(Br)cc2)CC1` (centres undefined), the GI50 in the test with DU-145 prostate is 10.5 µM; in the test on NCI-H226 lung it was 7.23 µM; in the test with 786-0 renal it was 3.94 µM; in the test with SK-MEL-28 melanoma it was 2.43 µM; in the test on A498 renal it was 5.86 µM; with OVCAR-8 ovarian, 6.5 µM. In addition, the GI50 with SK-MEL-2 melanoma is 3.66 µM; in the test on MCF7 breast, 2.63 µM; with TK-10 renal, 10.4 µM; in the test on MDA-MB-231 breast it was 2.41 µM. Further, the TGI with DU-145 prostate amounted to 22.3 µM; in the test with NCI-H226 lung it was 20.8 µM; in the test on 786-0 renal it was 14 µM; in the test with SK-MEL-28 melanoma, 5.97 µM; with A498 renal, 17.9 µM; with OVCAR-8 ovarian it was 21 µM. In addition, the TGI in the test on SK-MEL-2 melanoma stood at 11.3 µM; in the test with MCF7 breast it was 10 µM; with TK-10 renal, 22.7 µM; in the test on MDA-MB-231 breast it was 7.81 µM.
